Experiments:
RP-TLC lipophilicity = type: physicochemical; details: for RMW (chromatographic lipophilicity parameter): RP-18 plates, methanol-water 65-95%, extrapolated to 0% methanol; for -S TLC (slope of linear equation): Table S3
Procedure: RP-TLC analysis was performed using RP-18 TLC silica gel 60 F254 plates (10 × 20 cm, Merck, Darmstadt, Germany) with a DS-II chromatographic horizontal chamber (CHROMDES, Lublin, Poland). The mobile phase consisted of methanol (POCH, Gliwice, Poland) and water with the following concentrations of methanol: 65–95% (%, v/v), with a concentration change every 5%. After drying, the spots were observed under a UV lamp with a wavelength of 254 nm.

[1] = tested on: superoxide dismutase (SOD2); experiment: qRT-PCR relative mRNA expression, SOD2; type: cell-based, human; details: G-361, 48 h incubation, RQ = 2^-ΔΔCt, mean ± SD, control 1.001
Procedure: […] cell line was seeded into 6-well plates in the concentration of 4 × 10^5 cells/well. Thiosemicarbazide derivatives were added when 70–80% of confluence was achieved. After 48 h of incubation, 1 mL of TRIzol™ Reagent (Invitrogen, Carlsbad, CA, USA) was added to lyse the cells. Lysates were centrifuged for 5 min at 12,000× g at 4 °C, and clear supernatants were processed according to the manufacturer’s protocol. Then, reverse transcription was performed using NG dART RT-PCR kit (EURx, Gdańsk, Poland) and a Mastercycler gradient thermocycler (Eppendorf, Hamburg, Germany). Thermal profile of the reaction: 10 min at 25 °C, then 50 min at 50 °C, and 5 min at 85 °C. mRNA levels of the genes DHODH, 18SRNA, and BACT were assessed using TaqMan Fast Advanced Master Mix (ThermoFisher, Waltham, MA, USA). mRNA levels of the following genes: CAT, SOD2,18SRNA TBP were assessed using PowerUp SYBR Green Master Mix (ThermoFisher, Waltham, MA, USA) in a 7500 Fast Real-Time PCR System (ThermoFisher, Waltham, MA, USA). Thermal profile of the reactions performed: 20 s at 95 °C, followed by 40 cycles of 3 s at 95 °C and 30 s at 60 °C. The reaction was carried out in triplicates. Relative expression of the tested genes was determined by qRT-PCR and the ΔΔCt method. The statistical analysis was performed with RQ values (relative quantification, RQ = 2^−∆ΔCt).

melanoma line G-361 [2] = experiment: Annexin V / propidium iodide apoptosis assay (image cytometry); type: cell-based, human; details: G-361, 24 h, compound at IC50 concentration, representative histogram
Procedure: Cell apoptosis assays were performed using an NC 3000 system (Chemometec., Lillerød, Denmark) according to the manufacturer’s protocol for the Annexin V Assay. The G-361 cells were seeded in 6-well plates at a density of 2 × 10^5 cells/mL and the tested compounds with concentration IC50 were added when 70–80% of confluence was achieved. After 24 h incubation, cells were suspended in 100 μL of Annexin V binding buffer with 2 µL of Annexin V-CF488A conjugate (FITC-labeled annexin V) and 2 µL of Solution 15 (Hoechst33342 stains). In the next step, the cells were incubated for 15 min at 37 °C and subsequently centrifuged at 400× g for 5 min. Following the removal of the supernatant, the cell pellets were resuspended in 300 µL of Annexin V binding buffer and centrifuged twice under the conditions described above. Eventually, the cell pellets were resuspended in 100 µL of Annexin V binding buffer and 2 µL of Solution 16 (propidium iodide, which stains late apoptotic and necrotic cells) was added. The prepared samples were analyzed immediately using 2-chamber NC-Slides A2™ (Chemometec., Lillerød, Denmark) and the Annexin V Assay protocol. The obtained scatterplots were used to demarcate the percentage of healthy cells and early and late apoptotic cells. The experiment was performed three times with three replicates.

[3] = tested on: gastric cancer cell line MKN74; parameters: method as in PMID 22741788; details: MKN74 gastric cancer cells ref 9; cited from earlier work
melanoma line G-361 [4] = experiment: Two-step cell cycle analysis (DAPI, image cytometry); type: cell-based, human; details: G-361, 24 h, IC50 concentration
Procedure: Cell-cycle assays was performed using NC 3000 system (Chemometec., Lillerød, Denmark) according to manufacturer’s protocol for the two-step cell cycle analysis. The G-361 cells were seeded in 12-well plates at a density of 1 × 10^5 cells/well, and the tested compounds with concentration IC50 were added when 70–80% of confluence was achieved. After 24 h of incubation with tested compounds, the cells were washed with PBS and thoroughly resuspended in 250 μL lysis buffer supplemented with 10 μg/mL DAPI. After 5 min incubation at 37 °C, cells were mixed with 250 μL stabilization buffer and loaded into the 8-chamber slide NC-Slide A8 (Chemometec., Lillerød, Denmark). Cellular fluorescence was quantified using a NucleoCounter® NC-3000™ image cytometer (Chemometec., Lillerød, Denmark). The obtained DNA content histograms were used to demarcate different phases of the cell cycle in tested samples. The experiments were performed three times with three replicates.

SMILES	RMW (chromatographic lipophilicity parameter) (RP-TLC lipophilicity)	-S TLC (slope of linear equation) (RP-TLC lipophilicity)	Relative mRNA expression level SOD2 (RQ) [1]	Q1ll, normal cells (melanoma line G-361 [2]) [%]	Q1lr, early apoptotic cells (melanoma line G-361 [2]) [%]	Q1ul, necrotic cells (melanoma line G-361 [2]) [%]	Q1ur, late apoptotic cells (melanoma line G-361 [2]) [%]	effect on cell cycle [3]	effect on cell cycle (melanoma line G-361 [4])
CSc1ccc(NC(=S)NNC(=O)COc2ccc(Cl)cc2Cl)cc1 [PK2, 1-(2,4-dichlorophenoxy)acetyl-4-(4-metylothiophenyl)thiosemicarbazide]	3.2058	3.8253	1.486 ± 0.056	52	7	2	39		
O=C(COc1ccc(Cl)cc1Cl)NNC(=S)Nc1ccccc1I [PK6, 1-(2,4-dichlorophenoxy)acetyl-4-(2-iodophenyl)thiosemicarbazide]	2.8125	3.3436	1.249 ± 0.080	30	17	4	49		
O=C(COc1ccc(Cl)cc1Cl)NNC(=S)Nc1cccc2ccccc12 [PK9, 1-(2,4-dichlorophenoxy)acetyl-4-(1-naphtyl)thiosemicarbazide]	3.1398	3.8345	1.293 ± 0.100	32	28	1	39	inhibited the cell cycle in S and G2 phases	no cell cycle arrest was observed

From PMC8961551, “Potential Anticancer Agents against Melanoma Cells Based on an As-Synthesized Thiosemicarbazide Derivative” (Biomolecules, 2022)
